The record followed here is US20140322708A1, “METHOD FOR MEASURING SOMATIC DNA […]” (Albert Einstein College of Medicine of Yeshiva University, priority 2011, published 2014).

“And” between values parts separate entries of the source, which are not always exact repeats. Equal entries are not always repeated.

In data set [1] the test system is S2 cells. Put plainly: Reduced representation paired-end sequencing assay for genome rearrangements in bleomycin-treated cells. The data set is classed as cell-based, Drosophila melanogaster. To be noted: bleomycin-treated S2 cells as compared to untreated cells. As for the experimental part: Genomic DNA from cultured mouse (embryonic fibroblasts; MEFs) and fly (Drosophila melanogaster embryo cell line; S2) cells was analyzed by paired-end (“PE”) sequencing after a restriction enzyme digestion (HindIII for mouse and PstI for fly) and size selection. The fly and mouse genomes are structured very differently, with the mouse genome consisting of close to 50% repetitive DNA and the fly genome only 3%. The libraries were sequenced using a paired-end kit on the Illumina® Genome Analyzer fix with a read length of 85 bp. […] Alterations in the distance between two PE reads relative to the distance predicted by the RefSeq indicate putative genome rearrangements. […] First, any read pairs that had mapping quality scores lower than 30 (e.g. see Li H, Ruan J, Durbin R. (2008) Mapping short DNA sequencing reads and calling variants using mapping quality scores. Genome Research 18:1851-1858, hereby incorporated by reference in its entirety, for mapping scores) were filtered out. This removed repeat-spanning reads with ambiguous placement on the reference genome. […]
It was reasoned that treatment of S2 cells with a clastogen should give rise to elevated frequencies of genome rearrangements. […] The frequencies of genome rearrangements were expressed per read pair. […]

The test system of data set [2] is S2 cells. Put plainly: Single cell whole genome sequencing for somatic point mutations after ENU treatment. The data set is classed as cell-based, Drosophila melanogaster. As to the method:
To assess somatic mutation spectra in single cells in a genome-wide manner S2 cells derived from Drosophila melanogaster, an organism with a genome size of 160 MB, were used. The strategy followed is outlined in FIG. 1B. Individual single cells were picked from an S2 cell culture 72-h after treatment with 4.2 mM of the powerful point mutagen N-ethyl-N-nitrosourea (ENU) or mock treated with solvent (control). At 72-h post-treatment virtually no lesions remain (6,7) and cell survival is greater than 90% (8) (results not shown). Each single cell was lysed and subjected to whole genome amplification (WGA) using an optimized multiple displacement amplification (MDA) protocol (see Methods and Materials)(9). The amplified cells were first screened for locus dropout by qPCR using primer pairs distributed over the different chromosomes (FIG. 5). DNA from the cells displaying the least amount of dropout was fragmented and processed to generate sequencing libraries for the Illumina HiSeq platform. In this way libraries of three untreated and three ENU-treated cells were prepared. For comparison, a similar library was made from unamplified total genomic DNA from the untreated S2 cell population. To identify all possible mutations, either spontaneously formed in the unexposed, control cells or induced by ENU in the treated cells, the libraries were sequenced from both ends, generating between 50-100 million 108-bp paired-end reads per cell. Alignment to the Drosophila reference sequence (dm3) was performed using BWA (10), and post-processing was completed using the Genome Analysis Toolkit (GATK) (11). […] Since ENU is a point mutagen the subsequent analysis was based on this type of mutations only. The pipeline developed for somatic point mutation discovery is described in further detail in the Methods and Materials section. Briefly, aligned sequence data from the unamplified sample and a single cell was compared and all differences with the reference sequence were recorded as variants. Variants with sufficient coverage (20×) in both the unamplified and the single cell sample were classified as “germline” or “somatic” based on whether the variant was shared between the two samples. Somatic variants were further processed using a strand-bias filter and were visually validated using the Integrative Genomics Viewer (IGV) (12).
Single cells were collected under an inverted microscope by hand-held capillaries, deposited in PCR tubes along with 2 μl of culture medium, and immediately frozen on dry ice. […] The reaction products were purified using AMPure XP magnetic beads (Agencourt, Beverly, Mass.) and the reaction yield was measured using the NanoDrop 1000 spectrophotometer (Nanodrop Technologies LLC, Wilmington, Del.). […]

Data set [3] deals with mouse embryonic fibroblast (MEF). Put plainly: Single cell reduced representation (MseI) sequencing for somatic point mutations after ENU treatment. Format: cell-based. As to the method:
Therefore, the procedure shown in FIG. 1B was slightly modified, using a reduced representation approach based on restriction enzyme digestion. For this purpose mouse embryonic fibroblast (MEF) populations were used either treated with 4.2 mM ENU or mock-treated with solvent only. Instead of preparing sequencing libraries directly using randomly fragmented DNA, whole genome amplified DNA was digested from two treated and two control MEFs, as well as unamplified genomic DNA from the MEF population, with MseI, a four-base cutter with a TTAA cleavage site. Following digestion an agarose gel size-selection was performed for fragments between 250-bp and 350-bp, corresponding to a target region of approximately 300 MB. The fragments were sequenced using 121-bp single-end reads. […] Due to the nature of the reduced representation library, the strand bias filter could not be used and therefore a more stringent mutant read frequency cutoff (>40%) was adopted. Out of the 300-MB target region, 220 MB (73%) had sufficient coverage (10×) in the unamplified control sample and 85-93 MB (39-42%) of the 220 MB overlapped with regions of sufficient coverage in the single MEFs. Due to the absence of a sufficient number of heterozygous SNPs in the MEF cell line, allele dropout was estimated using the distribution of mutant read frequencies found in the ENU-treated MEF cells.
Single cells were collected under an inverted microscope by hand-held capillaries, deposited in PCR tubes along with 2 μl of culture medium, and immediately frozen on dry ice. Cells were lysed and amplified using the REPLI-g UltraFast Mini kit (Qiagen, Santa Clara, Calif.) according to the manufacturer's instructions, but using an initial 30-min amplification at 30° C. followed by an 18-hour amplification at 35° C. The reaction products were purified using AMPure XP magnetic beads (Agencourt, Beverly, Mass.) and the reaction yield was measured using the NanoDrop 1000 spectrophotometer (Nanodrop Technologies LLC, Wilmington, Del.). Reactions with yield of greater than 1 μg were tested for locus dropout at eight loci using comparative Ct measurements from real-time PCR (StepOne Plus, Applied Biosystems, Foster City, Calif.) performed with Fast SYBR® Green Master Mix (Foster City, Calif.). Up to 5 μg of DNA from samples displaying the least biased amplification was used as input for Illumina libraries. DNA was either randomly fragmented (S2 cells) or digested (MEFs) with 50 U of Msei (NEB, Ipswich, Mass.). Digested DNA (MEFs) was end-repaired using Mung Bean Nuclease (NEB, Ipswich, Mass.) and then used as input for the Illumina library preparation. S2 libraries were size-selected to 475-525-bp and MEF libraries were size selected to 250-350-bp using agarose gel electrophoresis. […] The aligned sequence data was processed using genome analysis toolkit (GATK) (e.g., available at www.broadinstitute.org) to realign reads containing indels or a high entropy of mismatches, recalibrate the base quality scores, and to compute coverage data and statistics. Somatic point mutations and germline variation were scored using a pipeline composed of SAMtools mpileup command (e.g., available at samtools.sourceforge.net/mpileup.shtml), VarScan somatic command (e.g., available at varscan.sourceforge.net/somatic-calling.html) and a custom script to parse and filter the VarScan output. Somatic events found in multiple single cells were discarded, as were events found in at least one read in the unamplified control sample. […]

For data set [4], the system named is S2 cells. Nature of the data set: Cell survival after ENU treatment. The data set is classed as cell-based, Drosophila melanogaster. The following applies: 72-h post-treatment, 4.2 mM ENU. As to the method:
To assess somatic mutation spectra in single cells in a genome-wide manner S2 cells derived from Drosophila melanogaster, an organism with a genome size of 160 MB, were used. The strategy followed is outlined in FIG. 1B. Individual single cells were picked from an S2 cell culture 72-h after treatment with 4.2 mM of the powerful point mutagen N-ethyl-N-nitrosourea (ENU) or mock treated with solvent (control). At 72-h post-treatment virtually no lesions remain (6,7) and cell survival is greater than 90% (8) (results not shown). Each single cell was lysed and subjected to whole genome amplification (WGA) using an optimized multiple displacement amplification (MDA) protocol (see Methods and Materials)(9). The amplified cells were first screened for locus dropout by qPCR using primer pairs distributed over the different chromosomes (FIG. 5). […] To identify all possible mutations, either spontaneously formed in the unexposed, control cells or induced by ENU in the treated cells, the libraries were sequenced from both ends, generating between 50-100 million 108-bp paired-end reads per cell. […] Briefly, aligned sequence data from the unamplified sample and a single cell was compared and all differences with the reference sequence were recorded as variants. […]

Where [5] appears, read: single S2 cell, 72-h after treatment with 4.2 mM ENU.
Setting [6] is: single MEF, treated with 4.2 mM ENU.

Regarding bleomycin, the “increase in genomic mutation frequency (genome rearrangements per read pair)” value in data set [1] was “approximately 3 fold”.

Take `CCN(N=O)C(N)=O` [ENU, N-ethyl-N-nitrosourea]: the “majority of the ENU-induced mutations (mutation spectrum)” value in data set [2] (S2 cells) is “T->A, T->C and G->A mutations”; in data set [3] (MEF cells) it was “T->A, T->C and G->A mutations”. For the same compound, the “induction of point mutations” value in data set [2] (on average in the exposed S2 cells vs control cells) stood at 7.5 fold; in data set [3] (ENU-treated MEF cells vs control MEFs) it was 35 fold. The “Mutations per Mb” value in data set [2] (setting [5]) was 3.27 and 2.54 and 3.18; in data set [3] (setting [6]), 3.97 and 3.91. Moreover, the Point mutations in data set [2] (setting [5]) is 938 and 482 and 690; in data set [3] (setting [6]), 426 and 446. Besides, the “ENU-induced mutation frequency in MEF cells, higher than that found in the S2 cells” value in data set [3] (mutations per MB, MEF vs S2) was 30%. Moreover, the cell survival result in data set [4] is reported as “greater than 90%”.
